Oligonucleotides are written 5' to 3', each unit as a sugar letter and its base; * is a phosphorothioate linkage, no mark a phosphodiester; rarer units and linkages stand in square brackets, end groups in braces. Plain capitals give the bases only. d = 2'-deoxy (DNA)
Legend:
LRP-1 [1] = experiment: Immunohistochemistry of LRP-1 in isolated mouse brain microvessels (MBMs); type: cell-based; settings: 10 μg/mL, 24 h, buffer = 100%
Source text: Isolation of mouse brain microvessels (MBMs): Mouse brain microvessels (MBMs) were isolated by a modification of a method of Gerhart et al (Brain Res Bull 21, 785-793, 1998). All glassware was pre-coated with phosphate buffered saline (PBS) supplemented with 1% BSA (1% BSA/PBS). This was done to minimize adhesion and to maximize recovery of microvessels. Briefly, ten to twelve cerebral cortices from adult male CD-1 mice were collected and the meninges removed. They were homogenized on ice in 5 mL of cold stock buffer (25 mM HEPES, 1% dextran and 1 envelope of Minimum Essential Medium (Invitrogen), pH 7.4). The homogenate was then filtered through a series of nylon mesh membranes (300 μm, then twice through 100 μm; Spectrum, Houston, Tex.), mixed with an equal volume of 40% dextran in stock buffer, and centrifuged at 3,000×g for 30 min at 4° C. […]
Immunohistochemistry of LRP-1 in isolated MBMs: Isolated MBMs were treated with either incubation buffer, random antisense, or antisense cocktail (10 μg/mL) in incubation buffer for 24 h. […] Fluorescence was detected with Zeiss Axiovert 40 CFL fluorescent microscope (Carl Zeiss, Inc., Thornwood, N.Y.). Images were obtained from 5-6 microvessels in each group and mean fluorescent intensity was quantified using Image J analysis software (National Institute of Health, USA).

LRP-1 [2] = target: T1, LRP-1 (Mus musculus, UniProt Q91ZX7); experiment: Recognition of a novel object after chronic icv infusion; type: in vivo; settings: 2 wk icv infusion 100 ng/h
T1 construct: from tissue; host or cells: brain of living mice (iv, icv or chronic icv antisense)
Procedure: Recognition of a novel object: This method has been described previously(Jaeger et al., 2002). Briefly, recognition memory for a novel object was assessed in cocktail and random antisense treated animals (100 ng/h two week infusion). Prior to testing, mice were habituated for three consecutive days to the testing apparatus (a 58×66×11 cm white, plastic box). During habituation, each mouse was allowed to freely explore the testing apparatus for 5 min. On the first day of training, mice were placed in the testing apparatus for 5 min and allowed to explore a pair of identical objects (Objects A and B; both were 7×6.3×5.1 cm). On the second day of training, one of the original objects was replaced with a new, or novel, object (Object C; 8.2×3.8×7.4 cm). Mice were placed in the testing apparatus for 5 min and the amount of time each mouse spent sniffing or touching the novel object was recorded by an observer. Results from this study were expressed as the percent of time spent investigating the novel object.

beta-F1 ATPase = target: T2, beta-F1 ATPase (Mus musculus, UniProt P56480); experiment: Brain perfusion uptake of I-PACAP27/I-PACAP38 after iv antisense; type: in vivo; settings: single tail vein injection 24 h before study, 10 μg/mouse
T2 construct: from tissue; host or cells: brain / blood-brain barrier of living mice (CD-1; SAMP8 in the T-maze study)
Procedure: To test the effectiveness of PTS-6 antisenses after their intravenous administration, two month old male CD-1 mice kept on a 12/12 hour light/dark cycle with food and water freely available were given an injection by tail vein of 0.9% saline with or without 10 μg/mouse of each of the three antisenses. To determine the specificity of the PTS-6 antisense on I-PACAP27 efflux, three other antisenses were also injected iv. These were:
After 24 h, the mice were anesthetized with urethane and both jugular veins exposed. The thorax was opened, the descending thoracic aorta clamped, both jugular veins severed, and lactated Ringer's solution containing I-PACAP27 (250,000 cpm/ml) perfused through the left ventricle of the heart at the rate of 2 ml/min. ^131I-PACAP38 (hereafter referred to as I-PACAP38) was perfused in some mice treated with PTS-6 antisense. After 5 min, the perfusion was stopped and 20 ml of lactated Ringer's solution was infused through the left ventricle of the heart to wash out the vascular space of the brain. The level of radioactivity was determined in the brain and in an aliquot of the perfusion fluid and results expressed as the brain/perfusion ratio in units of μl/g.

LRP-1 [3] = target: T1, LRP-1; experiment: Brain efflux of I-Aβ42 after acute icv antisense; type: in vivo; settings: 24 h after icv antisense, compared to saline
Source text: In vivo brain-to-blood efflux rate of icv antisense: A standard method was used to quantify brain-to-blood efflux rates (Banks et al., Neuroscience 121, 487-492, 2003; Jaeger et al., Proc Natl Acad Sci USA 102, 12495-12500, 2005). First, mice were anesthetized with an i.p. injection of 40% urethane. After the scalp was removed, a hole was made through the cranium (1.0 mm lateral and 0.5 mm posterior to bregma) with a 26-gauge needle. All of the needle except 2.5 to 3.0 mm of the tip was covered by PE-10 tubing. […] Injections were made into the lateral ventricle (icv) with a 1.0 μl Hamilton syringe.
For studies in which the -Slope is reported, this value was determined from a graph created with two time points (0 and 10 min) as described above. After the log of the mean % of the injected dose of radioactivity (amount detected/amount injected*100=% Inj Dose) in each brain was plotted against time (min), linear regression was used to create a line between the multiple values at these two points.
In some experiments, mice received two icv injections (antisense cocktail or saline icv and, at t=30 min or t=24 h, icv I-Aβ42). In these cases, the dose of antisense given was 200 ng/μl LR-BSA and the dose of I-Aβ42 given was 5×10^3 cpm/μl LR-BSA.
In the specificity experiment, mice received two icv injections. […]

P-glycoprotein = settings: intracranial introduction, rat; cited from earlier work
LRP-1 [4] = target: T1, LRP-1; experiment: Abluminal-to-luminal transport of I-Aβ42 in primary BMEC monolayers; type: cell-based; settings: 1 μg/mL unlabeled Aβ42 in abluminal chamber
Procedure: Isolation of mouse brain microvascular endothelial cells (BMECs): BMECs were isolated using a modified method of Szabó et al. (Neurobiology 5, 1-16 (1997). In brief, cerebral cortices from 8-week-old CD-1 mice were isolated, cleaned of meninges, and minced. The homogenate was digested with collagenase type II (1 mg/mL) and DNase I (30 U/mL) in Dulbecco's Modified Eagle Media (DMEM) [containing 100 units/mL penicillin, 100 μg/mL streptomycin, 50 μg/mL gentamicin and 2 mM GlutaMAX-I (Invitrogen, Carlsbad, Calif.)] at 37° C. for 40 min. After digestion, 20% bovine serum albumin (BSA) dissolved in DMEM was added. The sample was then centrifuged at 1,000×g for 20 min, the supernatant containing the neurons and glial cells was removed, and the pellet containing the microvessels further digested at 37° C. for 30 min with collagenase/dispase at a concentration of 1 mg/mL (Roche, Mannheim, Germany) and DNase I (30 U/mL dissolved in DMEM). After the second enzyme digestion, we then layered the pellet on a 33% Percoll (Amersham Biosciences, Piscataway, N.J.) gradient and centrifuged at 1,000×g for 10 min to separate the microvessels. To create the Percoll gradient, 33% Percoll solution (8 mL Percoll, 14.4 mL phosphate buffered saline; PBS, 0.8 mL plasma derived serum; PDS, and 0.8 mL 10×PBS) was centrifuged at 20,300×g for 1 h, prior to this step. […]

T1 sequence (Q91ZX7 20-4545): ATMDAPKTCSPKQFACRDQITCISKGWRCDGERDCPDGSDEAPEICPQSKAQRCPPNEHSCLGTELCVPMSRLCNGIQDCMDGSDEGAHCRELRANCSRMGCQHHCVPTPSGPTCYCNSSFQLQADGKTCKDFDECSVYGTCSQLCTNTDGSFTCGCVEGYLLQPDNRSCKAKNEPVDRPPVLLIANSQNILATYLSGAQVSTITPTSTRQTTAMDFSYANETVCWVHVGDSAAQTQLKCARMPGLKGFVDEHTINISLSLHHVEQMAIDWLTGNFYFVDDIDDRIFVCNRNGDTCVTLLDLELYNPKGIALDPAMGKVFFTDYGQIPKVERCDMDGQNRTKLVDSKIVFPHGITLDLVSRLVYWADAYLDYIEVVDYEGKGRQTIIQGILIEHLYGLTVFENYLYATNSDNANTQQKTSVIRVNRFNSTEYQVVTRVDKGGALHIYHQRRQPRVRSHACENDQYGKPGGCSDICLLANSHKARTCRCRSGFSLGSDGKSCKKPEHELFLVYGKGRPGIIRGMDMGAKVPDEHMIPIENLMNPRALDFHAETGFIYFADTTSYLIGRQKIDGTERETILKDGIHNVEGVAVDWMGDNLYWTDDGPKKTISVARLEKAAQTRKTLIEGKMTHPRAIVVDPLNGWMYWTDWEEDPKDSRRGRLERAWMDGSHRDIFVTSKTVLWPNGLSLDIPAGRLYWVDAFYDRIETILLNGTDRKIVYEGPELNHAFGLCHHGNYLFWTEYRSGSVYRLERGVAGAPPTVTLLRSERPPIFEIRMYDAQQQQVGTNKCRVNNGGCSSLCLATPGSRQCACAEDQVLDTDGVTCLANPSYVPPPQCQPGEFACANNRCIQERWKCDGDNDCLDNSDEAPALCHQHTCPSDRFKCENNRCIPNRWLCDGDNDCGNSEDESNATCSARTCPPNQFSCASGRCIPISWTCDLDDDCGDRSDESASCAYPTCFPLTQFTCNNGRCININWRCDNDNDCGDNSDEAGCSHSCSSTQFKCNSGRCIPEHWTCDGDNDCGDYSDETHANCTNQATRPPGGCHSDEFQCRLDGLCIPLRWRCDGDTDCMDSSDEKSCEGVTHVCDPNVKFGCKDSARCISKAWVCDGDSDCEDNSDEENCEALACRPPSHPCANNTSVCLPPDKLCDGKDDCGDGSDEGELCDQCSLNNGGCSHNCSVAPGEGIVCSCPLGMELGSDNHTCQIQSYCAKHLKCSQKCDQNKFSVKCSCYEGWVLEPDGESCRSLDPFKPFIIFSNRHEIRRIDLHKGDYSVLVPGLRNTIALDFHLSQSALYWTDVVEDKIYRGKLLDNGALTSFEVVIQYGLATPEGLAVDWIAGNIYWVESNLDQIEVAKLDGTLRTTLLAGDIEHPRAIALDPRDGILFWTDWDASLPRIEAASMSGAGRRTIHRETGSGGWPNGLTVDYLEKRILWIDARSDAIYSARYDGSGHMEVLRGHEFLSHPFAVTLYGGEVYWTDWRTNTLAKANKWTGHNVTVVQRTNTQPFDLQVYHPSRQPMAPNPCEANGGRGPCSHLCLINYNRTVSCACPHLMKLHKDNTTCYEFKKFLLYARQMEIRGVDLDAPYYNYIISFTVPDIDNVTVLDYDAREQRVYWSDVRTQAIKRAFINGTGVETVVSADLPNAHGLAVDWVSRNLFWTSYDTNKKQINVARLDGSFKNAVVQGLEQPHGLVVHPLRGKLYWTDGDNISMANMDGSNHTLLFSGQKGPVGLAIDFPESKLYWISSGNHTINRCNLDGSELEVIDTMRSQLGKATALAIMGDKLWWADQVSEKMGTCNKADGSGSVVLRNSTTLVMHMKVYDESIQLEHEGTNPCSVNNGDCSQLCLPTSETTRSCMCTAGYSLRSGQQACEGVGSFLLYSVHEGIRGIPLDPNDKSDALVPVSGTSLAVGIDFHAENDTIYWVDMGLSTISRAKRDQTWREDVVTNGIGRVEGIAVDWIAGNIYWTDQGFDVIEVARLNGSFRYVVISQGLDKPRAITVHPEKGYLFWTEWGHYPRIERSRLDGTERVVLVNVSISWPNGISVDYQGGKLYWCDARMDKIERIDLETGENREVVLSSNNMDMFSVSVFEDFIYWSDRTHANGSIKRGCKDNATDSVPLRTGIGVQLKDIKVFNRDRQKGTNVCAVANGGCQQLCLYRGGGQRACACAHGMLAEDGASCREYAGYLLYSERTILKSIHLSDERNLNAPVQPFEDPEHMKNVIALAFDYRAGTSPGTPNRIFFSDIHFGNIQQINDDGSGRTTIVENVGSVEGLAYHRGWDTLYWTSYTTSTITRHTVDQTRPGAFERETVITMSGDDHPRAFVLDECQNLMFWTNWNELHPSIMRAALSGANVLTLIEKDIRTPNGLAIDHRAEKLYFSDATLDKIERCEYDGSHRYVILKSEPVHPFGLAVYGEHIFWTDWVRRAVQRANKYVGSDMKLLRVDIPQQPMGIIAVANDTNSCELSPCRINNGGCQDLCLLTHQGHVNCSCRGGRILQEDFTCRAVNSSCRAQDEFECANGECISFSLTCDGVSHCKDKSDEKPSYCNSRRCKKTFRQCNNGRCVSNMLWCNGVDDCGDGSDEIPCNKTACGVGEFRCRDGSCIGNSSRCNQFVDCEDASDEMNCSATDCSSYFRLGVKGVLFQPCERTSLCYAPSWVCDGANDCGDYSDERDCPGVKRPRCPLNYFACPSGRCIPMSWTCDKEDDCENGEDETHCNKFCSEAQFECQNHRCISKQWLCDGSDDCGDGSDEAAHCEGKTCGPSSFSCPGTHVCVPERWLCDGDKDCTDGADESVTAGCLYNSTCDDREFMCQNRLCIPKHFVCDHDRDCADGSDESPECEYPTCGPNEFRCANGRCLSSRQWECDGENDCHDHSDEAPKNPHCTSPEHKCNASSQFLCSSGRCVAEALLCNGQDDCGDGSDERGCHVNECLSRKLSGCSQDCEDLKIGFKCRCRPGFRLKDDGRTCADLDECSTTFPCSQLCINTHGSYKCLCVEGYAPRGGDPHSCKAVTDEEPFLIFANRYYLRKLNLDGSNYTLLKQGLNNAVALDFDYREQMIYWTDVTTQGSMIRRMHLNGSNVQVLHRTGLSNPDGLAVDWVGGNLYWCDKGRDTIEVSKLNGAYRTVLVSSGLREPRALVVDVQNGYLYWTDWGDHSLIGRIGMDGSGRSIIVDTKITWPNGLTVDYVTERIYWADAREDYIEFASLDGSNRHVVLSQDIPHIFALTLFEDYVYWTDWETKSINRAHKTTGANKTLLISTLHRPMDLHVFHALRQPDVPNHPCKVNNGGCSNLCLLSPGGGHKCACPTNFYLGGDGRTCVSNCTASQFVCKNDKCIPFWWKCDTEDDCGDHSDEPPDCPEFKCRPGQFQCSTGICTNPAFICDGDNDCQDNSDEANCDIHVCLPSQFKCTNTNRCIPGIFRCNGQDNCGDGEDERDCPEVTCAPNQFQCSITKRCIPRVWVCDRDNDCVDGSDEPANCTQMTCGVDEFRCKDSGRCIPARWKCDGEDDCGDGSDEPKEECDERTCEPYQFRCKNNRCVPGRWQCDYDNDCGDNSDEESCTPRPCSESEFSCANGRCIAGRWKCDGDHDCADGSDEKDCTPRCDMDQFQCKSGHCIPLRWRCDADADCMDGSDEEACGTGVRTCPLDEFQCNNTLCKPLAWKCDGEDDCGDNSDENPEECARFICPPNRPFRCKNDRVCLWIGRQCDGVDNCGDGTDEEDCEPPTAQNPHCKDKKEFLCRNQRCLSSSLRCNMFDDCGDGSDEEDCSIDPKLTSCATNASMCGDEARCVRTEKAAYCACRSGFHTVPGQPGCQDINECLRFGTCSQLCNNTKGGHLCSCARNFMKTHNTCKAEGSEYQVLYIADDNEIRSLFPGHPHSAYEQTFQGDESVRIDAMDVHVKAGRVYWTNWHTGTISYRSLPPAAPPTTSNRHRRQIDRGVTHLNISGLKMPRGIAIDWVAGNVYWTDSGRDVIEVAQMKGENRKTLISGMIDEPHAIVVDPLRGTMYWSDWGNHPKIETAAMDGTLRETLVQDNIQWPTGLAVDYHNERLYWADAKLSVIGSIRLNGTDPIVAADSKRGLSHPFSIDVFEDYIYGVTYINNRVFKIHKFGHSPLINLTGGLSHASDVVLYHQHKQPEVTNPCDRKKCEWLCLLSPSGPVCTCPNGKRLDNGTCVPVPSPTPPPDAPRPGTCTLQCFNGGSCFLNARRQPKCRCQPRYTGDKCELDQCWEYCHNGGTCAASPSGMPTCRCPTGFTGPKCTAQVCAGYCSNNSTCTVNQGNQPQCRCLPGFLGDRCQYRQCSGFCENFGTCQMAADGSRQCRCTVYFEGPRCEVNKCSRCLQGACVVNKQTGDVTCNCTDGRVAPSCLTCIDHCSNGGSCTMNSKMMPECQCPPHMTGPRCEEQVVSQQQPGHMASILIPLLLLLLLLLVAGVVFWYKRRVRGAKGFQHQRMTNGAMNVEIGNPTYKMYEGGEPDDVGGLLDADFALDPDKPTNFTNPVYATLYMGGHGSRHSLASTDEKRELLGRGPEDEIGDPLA
T2 sequence (P56480 47-529): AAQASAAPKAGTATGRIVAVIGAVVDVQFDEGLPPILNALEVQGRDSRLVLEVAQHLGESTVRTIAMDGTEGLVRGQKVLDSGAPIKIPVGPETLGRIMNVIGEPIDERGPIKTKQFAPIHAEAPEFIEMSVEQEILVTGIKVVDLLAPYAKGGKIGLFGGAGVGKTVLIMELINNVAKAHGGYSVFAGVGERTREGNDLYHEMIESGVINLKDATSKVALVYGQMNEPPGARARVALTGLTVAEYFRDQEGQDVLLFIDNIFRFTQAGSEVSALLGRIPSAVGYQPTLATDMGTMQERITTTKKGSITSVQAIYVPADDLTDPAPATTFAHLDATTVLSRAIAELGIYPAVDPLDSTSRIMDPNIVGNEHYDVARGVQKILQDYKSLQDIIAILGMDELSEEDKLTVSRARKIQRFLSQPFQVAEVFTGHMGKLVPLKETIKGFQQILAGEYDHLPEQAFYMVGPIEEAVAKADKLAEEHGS

## 5′-(_P═S)GAGAAGGTTGTGTGATCTTCA (antisense dG*dA*dG*dA*dA*dG*dG*dT*dT*dG*dT*dG*dT*dG*dA*dT*dC*dT*dT*dC*dA; listed as Mus musculus) [random antisense]
LRP-1 [1]
  mean fluorescent intensity (LRP-1 immunofluorescence): 111.14%
LRP-1 [2]
  time spent investigating the novel object: spent a majority of their time investigating the new object

## 5′-(_P═S)GGCGCCTTTGTTCGAACCCACATCTTCAGCAAAGAACACCAG-3′ (antisense dG*dG*dC*dG*dC*dC*dT*dT*dT*dG*dT*dT*dC*dG*dA*dA*dC*dC*dC*dA*dC*dA*dT*dC*dT*dT*dC*dA*dG*dC*dA*dA*dA*dG*dA*dA*dC*dA*dC*dC*dA*dG; listed as Mus musculus)
beta-F1 ATPase
  uptake of I-PACAP27 delivered by brain perfusion: no statistically significant effect
LRP-1 [3]
  brain efflux of I-Aβ42 (specificity experiment): significant increase

## 5′-(_P═S)TCATGAAGCC-3′ (antisense dT*dC*dA*dT*dG*dA*dA*dG*dC*dC; listed as Mus musculus)
beta-F1 ATPase
  uptake of I-PACAP27 delivered by brain perfusion: no statistically significant effect
LRP-1 [3]
  brain efflux of I-Aβ42 (specificity experiment): significant increase

## 5′-GGACTAAATGCTTTCCTTTGTGACAG-3′ (listed as DNA, chemistry not given here; listed as Rattus norvegicus) [SEQ ID NO 16]
P-glycoprotein
  P-glycoprotein expression in the brain: reduction of the rat P-glycoprotein expression

## Aβ42: 42 amino acid murine amyloid beta (DAEFGHDSGFEVRHQKLVFFAEDVGSNKGAIIGLMVGGVVIA; Amyloid-beta protein 42; UniProt P12023 672-713, looked up)
LRP-1 [4]
  abluminal-to-luminal transport of I-Aβ42 (saturability): significantly (p<0.01) inhibited
